These results are taken from patent US12605350B2, “Composition for preventing, ameliorating, or treating disease caused by nitration of tyrosine in proteins comprising tyrosine as effective component” (INDUSTRY-ACADEMIC COOPERATION FOUNDATION GYEONGSANG …, priority 2020, dated 2026).

Molecules are shown by their SMILES. “Also recorded” adds a separate entry of the source.

Assay [1] has as its system high-fat diet mouse model of type 2 diabetes. Nature of the assay: insulin resistance test. Format: in vivo. Conditions: HFD+L-Tyr vs HFD; 6 hours fasting, insulin 0.75 U/kg i.p., 15-90 minutes. The protocol: Twenty-seven C57BL/6 male mice (3-week old) were acclimated to the breeding condition for 1 week. […] Blood glucose was measured every week.
Insulin was diluted with physiological saline to prepare 0.15 U/ml solution. Blood glucose of a mouse, which has been subjected to fasting for 6 hours, was measured, and the animal was intraperitoneally injected with insulin (0.75 U/bodyweight (kg)). After the intraperitoneal injection of insulin, blood glucose was measured at time points of 15, 30, 60, and 90 minutes. Insulin injection amount(μl)=Bodyweight(g)×5 Formula (2)

In assay [2] the test system is animal model of acute hepatic encephalopathy caused by AOM. Kind of assay: ammonia in blood, hepatic encephalopathy (hyperammonemia) caused by azoxymethane. In kind it is in vivo, mouse. The conditions noted are these: L-tyrosine 100 mg/kg oral once a day for 4 days, AOM 100 mg/kg i.p. As for the experimental part:
C57BL/6 male mouse (13-week old, KOATECH, South Korea) was allowed to have free access to diets and water in sterile breeding room with constant temperature and humidity. The animals were divided into 3 test groups, i.e., (1) Control group (Control), (2) Carboxymethyl cellulose+azoxymethane treatment group (CMC+AOM), and (3) L-Tyrosine+AOM treatment group (L-Tyr+AOM). L-Tyrosine (100 mg/kg) was suspended in 0.5% CMC (carboxymethyl cellulose). The animal was orally administered, once a day for 4 days, with L-tyrosine or the prepared solvent CMC. Two hours after the oral administration on Day 4, intraperitoneal injection of AOM (100 mg/kg, […]) was carried out. To prevent dehydration, the animal was intraperitoneally injected with […] of physiological saline, 12 hours after the administration of AOM. Four hours after the injection, the test animal was sacrificed, blood was collected from the heart, and the liver tissues were harvested. Amount of ammonia in blood was measured by using PocketChem BA PA-4140 (Arkray, Japan), which is an analytical device based on single wavelength reflectometry. Specifically, blood was applied in an amount of 20 μl on a test strip followed by reaction for 3 minutes. The strip was then inserted to the measurement device to obtain the absorbance at a wavelength of 635 nm (LED), which was then expressed in unit of μg/dl.

Assay [3] concerns chronic immobilization stress group (STR). Kind of assay: OFT (open field test) after chronic immobilization stress. The conditions noted are these: tyrosine-diet (TD, 181.2 mg/kg) compared to normal diet (ND). In kind it is in vivo, mouse. The protocol: The animal models were divided into two groups (i.e., normal group and stress group). The animal of stress group was individually brought by force to a restrainer for 2 hours every day (i.e., between 2 PM and 4 PM) so that it was applied with chronic immobilization stress for 15 days. Change in bodyweight and food intake amount were measured every other day. The normal group and stress group were divided again into a normal diet group and a tyrosine-supplemented diet group (181.2 mg/kg), and then fed. OFT (open field test) was carried out using a rectangular box (60×60×20 cm). Mouse was placed at the center area of box (30×30 cm), and the mouse movement was followed for 5 minutes and total travel distance, center area duration, and frequency of center area entries were measured.

Assay [4] concerns the target T1, glutamine synthetase (GS) (Mus musculus, UniProt P15105).
T1 construct: PFC sample was weighed first, and, after lysis of the tissues by using Bullet homogenizer, subjected to centrifuge; from tissue; host or cells: mouse prefrontal cortex (PFC) lysate
Nature of the assay: in vitro GS activity of PFC tissue lysate treated with nitrogen peroxide (PN) and tyrosine. In kind it is biochemical. Conditions: PFC tissue lysate (10 μg), 0.0031 to 0.45 mg/ml tyrosine, nitrogen peroxide (PN) 10 times the tissue lysate. As for the experimental part: Each of the blood and PFC sample was obtained from a mouse anesthetized with CO2 gas. Specifically, mouse blood was collected between 9 AM and 11 AM and stored in a K3EDTA-coated vacuum container. Plasma was obtained by centrifuge for 10 minutes at 4° C., 500×g. PFC sample was weighed first, and, after lysis of the tissues by using Bullet homogenizer, subjected to centrifuge for 20 minutes at 4° C., 12,000 rpm. Thus-obtained plasma and tissue lysate were kept at −80° C. until use.
10 μg of the lysate were admixed with […] of GS assay buffer solution (50 mM imidazole-HCl, pH 6.8, 50 mM L-glutamine, 25 mM hydroxylamine, 25 mM sodium arsenate, 2 mM MnCl2 and 0.16 mM ADP), followed by incubation for 1 hour at 37° C.
After the mixing, the reaction was terminated by adding 50 μl of stop buffer solution (90 mM FeCl3, 1.8 N HCl and 1.45% trichloroacetic acid), and then γ-glutamylhydroxamate synthesized from a reaction between glutamine and hydroxylamine as catalyzed by GS was measured at 560 nm using a microplate reader.
Moreover, after PFC (prefrontal cortex) tissue lysate (10 μg) was added and mixed with 0.0031 to 0.45 mg/ml tyrosine, incubated on ice for 10 minutes, and added with nitrogen peroxide (PN), in an amount that is 10 times the tissue lysate, followed by incubation for 10 minutes, in vitro GS activity was examined.

Another assay has as its system Cu/Zn SOD. Kind of assay: activity of Cu/Zn SOD, renal ischemia and reperfusion. The conditions noted are these: L-tyrosine 100 mg/kg oral for 4 days, IR. Format: in vivo, mouse. As for the experimental part: (§1) C57BL/6 male mouse (23 to 25 g, KOATECH, South Korea) was allowed to have free access to diets and water in sterile breeding room with constant temperature and humidity. The animals were divided into 3 test groups, i.e., 1) Control group (Sham), 2) Renal ischemia having treatment with prepared solvent and induced reperfusion group (CMC+IR), and 3) Renal ischemia having treatment with L-tyrosine and induced reperfusion group (L-Tyr+IR).
(§2) L-Tyrosine (100 mg/kg) was suspended in 0.5% CMC (carboxymethyl cellulose). The animal was orally administered, once a day for 4 days, with L-tyrosine or the prepared solvent CMC. Thirty minutes after the oral administration on Day 4, renal ischemia was caused. Specifically, the animal abdomen was cut and renal pedicles at both sides were clamped using a Muller atraumatic vascular clamp to cause renal ischemia. After 25 minutes of blood ischemia, the clamp was removed followed by reperfusion. The control group (Sham) received the same operational procedures as above except the ischemia using clamp. Twenty-four hours after the reperfusion, the test animal was sacrificed, blood was collected from the heart, and the tissues were harvested.

The subject of assay [5] is mouse model of epileptic seizure which has been induced to have seizure by kainic acid. Nature of the assay: ROS/RNS in hippocampal tissues after kainic acid. Format: in vivo. The conditions noted are these: mouse survived after kainic acid, tyrosine diet vs ND. As for the experimental part: Hippocampus in brain tissues was added with RIPA (containing proteinase/phosphatase inhibitor), in an amount of 100 μl per 10 mg of the tissues, and then lysed for 1 minute by using glass beads and a bullet blender. Supernatant was separated by centrifuge for 15 minutes at 12,000×g, 4° C., and, after 10-fold dilution with PBS, used for measurement of ROS/RNS. Concentration of ROS/RNS was measured by using Oxiselect ROS/RNS assay kit (Cell Biolabs) according to the recommended experimental protocol.

The test system of assay [6] is acute renal failure caused by kidney ischemia or reperfusion injury. Kind of assay: ROS/RNS amount in mitochondria, renal ischemia and reperfusion. Format: in vivo, mouse. Conditions: L-tyrosine 100 mg/kg oral for 4 days, IR. As for the experimental part: as §1, §2
In the next assay the test system is MnSOD. Nature of the assay: activity of MnSOD, renal ischemia and reperfusion. Format: in vivo, mouse. Conditions: L-tyrosine 100 mg/kg oral for 4 days, IR. The protocol:
as §1, §2

T1 sequence (P15105 2-373 limits assumed): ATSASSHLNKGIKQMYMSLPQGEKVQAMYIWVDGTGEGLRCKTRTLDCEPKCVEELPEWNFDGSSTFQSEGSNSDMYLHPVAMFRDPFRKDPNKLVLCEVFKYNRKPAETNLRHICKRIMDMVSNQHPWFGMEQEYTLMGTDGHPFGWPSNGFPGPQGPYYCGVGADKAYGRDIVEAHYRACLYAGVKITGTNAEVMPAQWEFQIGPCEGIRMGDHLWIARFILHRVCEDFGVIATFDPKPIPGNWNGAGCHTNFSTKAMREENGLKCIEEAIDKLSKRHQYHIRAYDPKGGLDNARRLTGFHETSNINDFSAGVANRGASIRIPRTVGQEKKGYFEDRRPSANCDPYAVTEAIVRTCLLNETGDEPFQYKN

Take `N[C@@H](Cc1ccc(O)cc1)C(=O)O` [L-tyrosine]: in assay [1], the “blood glucose amount, insulin resistance test” value was “statistically significant decrease in blood glucose amount”. The blood ammonia result in assay [2] is on record as “suppressed”.

For the molecule `N[C@@H](Cc1ccc(O)cc1)C(=O)O` [tyrosine], in assay [3], the center area duration result was “higher”, the “frequency of center area entries” value is “higher” and the travel distance result was “higher”. Also, the “in vitro GS activity” value in assay [4] is “statistically significant increase in GS activity; also recorded: higher GS activity is obtained in accordance with an increase in the tyrosine concentration”. The “activity of Cu/Zn SOD” value in the assay on Cu/Zn SOD was “again recovered”. In assay [5], the “ROS/RNS amount in hippocampal tissues” value is given as “reduced to the level of the control group; also recorded: statistically significant decrease in ROS/RNS amount”. Moreover, in assay [6], the “ROS/RNS amount in mitochondria” value was “suppressed”. In addition, in the assay on MnSOD, the “activity of MnSOD” value was “again recovered”.
